For the series, the system named is pure and enrichment cultures. The series is described as follows: Toxicity experiments: effect of PFAS on biomass over a 14-day incubation. The format is cell-based, Acidimicrobiaceae sp. A6 / Terrimonas sp. A8. The settings on record: for toxicity / effects on the overall bacterial numbers: 1 ppb, 10 ppb, 100 ppb and 1 ppm, 14 days incubation, pure and enrichment cultures; for biomass growth: 1 ppm, pure culture incubations, 14 days. Here is the method:
Toxicity experiments were conducted for both pure and enrichment cultures with selected PFAS Compounds. The concentrations to test were 1 ppb, 10 ppb, 100 ppb and 1 ppm. During 14 days incubation, no toxicity of Heptafluorobutyric acid (HFBA), Perfluorooctanoic acid (PFOA) was evidenced by cultures with these concentrations.
All Incubations were conducted in 20-ml serum vials with a pure strain A6 (Acidimicrobiaceae sp.)/A8 (Terrimonas sp.) or an enrichment culture, which contained 40.1-48.5% of Acidimicrobiaceae sp. A6, and in the anoxic inorganic Fe(III)-NH4^+ enrichment medium. The composition of the inorganic Fe(III)-NH4^+ enrichment medium (pH 4.5-5.0) consisted of 504 mg/L 2-line ferrihydrite [Fe2O3·0.5H2O], 177 mg/l NH4Cl, 77.9 mg/L (NH4)2SO4, 19.8 mg/L NaHCO3, 71.0 mg/L KHCO3, 9.00 mg/L KH2PO4, 100 mg/L MgSO4·7H2O, and 60.0 mg/L CaCl2·2H2O, in addition to 1 ml/L of a trace element solution, and 1 ml/L of a vitamin solution (ATCC® MD-VS™). An electron shuttling compound, 9,10-Anthraquinone-2,7-disulphonic acid (AQDS), was added to the pure strain A6 with a final concentration as 0.05 mg/L. To achieve strictly anoxic conditions, the headspace of each incubation vial was vacuumed until no bubble formation was observed and then flushed with a N2/CO2 (80:20) gas mixture, which was repeated 3 times. Then, for the PFAS degradation experiment, an equal volume of either HFBA, PFOA and PFBS was added to each group of vials, to yield final concentrations to 100 ppb. In the control group, autoclave control, without PFASs and without addition of NH4^+ were prepared. All These vials were placed on a shaker (100 rpm) in an anaerobic glove box for 14-day incubations at ambient temperature. Duplicate samples were collected destructively every week for Fe(II), NH4^+, and HFBA/PFOA/PFBS analyses.
Toxicity experiments, in terms of how each of these PFAS affects the biomass over a 14-day incubation, were conducted for both pure and enrichment cultures. The concentrations tested were 1 ppb, 10 ppb, 100 ppb and 1 ppm. During 14 days of incubation, no effects by Heptafluorobutyric acid (HFBA) and Perfluorooctanoic acid (PFOA) on the overall bacterial numbers were detected for these concentrations. However, the biomass growth was inhibited when the concentration of 2,2,2-Trifluoroethyl Nonafluorobutanesulfonate was 1 ppm in the incubation with the pure culture.

“Also recorded” adds a separate entry of the source.

In the case of `O=C(O)C(F)(F)C(F)(F)C(F)(F)C(F)(F)C(F)(F)C(F)(F)C(F)(F)F` [PFOA, Perfluorooctanoic acid], the “toxicity / effects on the overall bacterial numbers” value is “no toxicity; also recorded: no effects”.

With `O=C(O)C(F)(F)C(F)(F)C(F)(F)F` [HFBA, Heptafluorobutyric acid], the “toxicity / effects on the overall bacterial numbers” value is on record as “no toxicity; also recorded: no effects”.

`O=S(=O)(OCC(F)(F)F)C(F)(F)C(F)(F)C(F)(F)C(F)(F)F` [PFBS, 2,2,2-Trifluoroethyl Nonafluorobutanesulfonate]: the biomass growth entry is “slightly inhibited”. Moreover, the biomass growth result (listed as 2,2,2-Trifluoroethyl Nonafluorobutanesulfonate) is “inhibited”.
